Assay results taken from publication PMC5974403, “The novel histone de acetylase 6 inhibitor, MPT0G211, ameliorates tau phosphorylation and cognitive deficits in an Alzheimer’s disease model” (Cell Death & Disease, 2018).

What was measured:
SH-SY5Y cells [1] = assay: Subcellular fractionation of tau pools (tau aggregation) in transfected SH-SY5Y cells; format: cell-based, human; settings: SH-SY5Y transfected hAPP 695 + hTau P301L, 0.1 μM, 24 h
Protocol: The fractionation scheme used to separate different cellular pools of tau, and the western blot analysis of the effects of the compounds on tau pools generated using the fractionation scheme are presented. b, d SH-SY5Y cells were transfected for 24 h with pCAX APP 695 and pRK5-EGFP-Tau P301L, incubated with or without MPT0G211 or ACY-1215 (0.1 μM) for another 24 h, and then the cells were fixed and stained by propidium iodide (b) or annexin V/PI double staining (d) and analyzed by flow cytometry. c, e Percentages of the subG1 phase (c) or annexin V-positive cells (e) in response to drug treatment as explained in (b). Results are presented as the mean ± SEM. *p < 0.05 and **p < 0.01 compared with the control group; ^#p < 0.05 and ^##p < 0.01 compared with the indicated groups TEXT PRINTED IN THE PICTURE: (B) MPT0G211: hAPP + hTauP301L: SubG1 10.91% | (B) ACY-1215: hAPP + hTauP301L: SubG1 15.40% | (D) MPT0G211: hAPP + hTauP301L: 9.56%; hAPP + hTauP301L: 11.26% | (D) ACY-1215: hAPP + hTauP301L: 9.28%; hAPP + hTauP301L: 11.25%
This assay followed a published method. Briefly, cells (1 × 10^7) were treated with drugs for 24 h and scraped off into breaking buffer (0.25 M sucrose, 10 mM HEPES, pH 7.2, 1 mM MgAc2, and protease inhibitors). […] Samples containing equal amounts of protein were analyzed using SDS-PAGE.

SH-SY5Y cells [2] = assay: Aβ1–40-induced tau phosphorylation, western blot; format: cell-based, human; settings: Aβ1–40 10 μM 24 h, then 0.1 μM for 24 h
Protocol: Cell lysates were prepared for western blot analysis of the indicated proteins. Results are presented as the mean ± SEM. *p < 0.05, **p < 0.01, and ***p < 0.001 compared with the control group; ^#p < 0.05, ^##p < 0.01, ^###p < 0.001 compared with the indicated groups
Cells (1 × 10^6) were incubated for 10 min at 4 °C in lysis buffer (20 mM HEPES, pH 7.4, 2 mM EGTA, 50 mM β-glycerophosphate, 0.1% Triton X-100, 10% glycerol, 1 mM dithiothreitol, 1 μg/mL leupeptin, 5 μg/mL aprotinin, 1 mM phenylmethylsulfonyl fluoride, and 1 mM sodium orthovanadate), scraped from the plate, incubated on ice for 10 min, and centrifuged at 17,000 × g for 30 min at 4 °C. Protein samples (30 μg) were electrophoresed through sodium dodecyl sulfate-polyacrylamide gels (SDS-PAGE) and transferred onto a nitrocellulose membrane, which was then blocked by incubation for 30 min at room temperature with 5% fat-free milk in PBS. Immunoblotting was performed by overnight incubation at 4 °C with primary antibodies in PBS, followed by incubation for 1 h at room temperature with HRP-conjugated secondary antibodies. Bound antibodies were measured using ECL reagent (T-Pro Biotechnology, New Taipei City, Taiwan), and the membrane was placed on a photographic film. Cell lysates (30 μg) were incubated with antibodies (1 μg each) and protein A/G agarose beads overnight at 4 °C. […]

SH-SY5Y cells [3] = assay: MTT cell viability, SH-SY5Y; format: cell-based, human; settings: 24 h, 0.01–1 μM
Protocol: Cell viabilities were determined by MTT assay. The results represent the mean ± SEM of three independent experiments; *p < 0.05, **p < 0.01 and ***p < 0.001 compared with controls TEXT PRINTED IN THE PICTURE: (A) no label printed: M.W. 293.32

3×Tg-AD mice = assay: Morris water maze in 3×Tg-AD mice; format: in vivo, mouse; settings: 50 mg/kg oral daily for 3 months
Protocol: Red arrowheads indicate phosphorylated-tau proteins. Scale bar = 25 μm. Data represent the mean ± SEM. *p < 0.05, **p < 0.01, and ***p < 0.001 compared with the basal or control group; ^#p < 0.05, ^##p < 0.01, and ^###p < 0.001 compared with the vehicle-treated group
Six-month-old female B6;129-Psen1^tm1Mpm Tg(APPSwe,tauP301L)1Lfa/Mmjax (3xTg-AD) mice and control B6129SF2/J mice were obtained from the Jackson Laboratory (Bar Harbor, ME, USA), orally administered MPT0G211 (50 mg/kg) or memantine (30 mg/kg, dissolved in water) once daily for 3 months, and then subjected to Morris water maze. The assay that using 3xTg-AD mice was entrusted to carry out by Development Center for Biotechnology (New Taipei City, Taiwan).
The water maze was constructed as a white circular pool filled with water, and the water temperature was maintained at 23–27 °C. A white platform was established and submerged 5 cm below the surface of the water and styrofoam beads were added to make the platform invisible. Animals were trained by permitting them to stay for 10 s upon reaching the platform. […] Training was performed twice daily and 4 days during 1 week. Test trials were repeated twice with a 20 min interval for each animal. Scopolamine (1 mg/kg) was injected intraperitoneally 90 min before the test trial to induce AD-like features, except for the control group.

O=C(NO)c1ccc(CNc2cccc3cccnc23)cc1 [MPT0G211, N-hydroxy-4-((quinolin-8-ylamino)methyl)benzamide]
levels of aggregated tau (SH-SY5Y cells [1]): significantly reduced
GSK3β activity and Aβ1–40-induced tau phosphorylation (SH-SY5Y cells [2]): diminished
cytotoxicity (MTT cell viability) (SH-SY5Y cells [3]): did not result in any significant cytotoxicity
memory impairment (Morris water maze escape latency) (3×Tg-AD mice): significantly ameliorated
